Assay results reported in PubChem BioAssay (NCI).
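48-hour exposure; five concentrations; linearly interpolated endpoints. Definition used: TGI = concentration required for complete inhibition of growth.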

Legend:
Test in all cases: inhibition of tumour cell growth, NCI panel, 48 h
KM12 colon = test system: KM12 colon
DLD-1 colon = test system: DLD-1 colon
HOP-62 NSCLC = test system: HOP-62 NSCLC
UO-31 renal = test system: UO-31 renal
KM20L2 colon = test system: KM20L2 colon
OVCAR-4 ovarian = test system: OVCAR-4 ovarian
IGROV1 ovarian = test system: IGROV1 ovarian
SF-539 CNS = test system: SF-539 CNS
CAKI-1 renal = test system: CAKI-1 renal
DMS 273 small cell lung = test system: DMS 273 small cell lung
PC-3 prostate = test system: PC-3 prostate
MDA-N = test system: MDA-N

Row | SMILES | TGI (KM12 colon) [µM] | TGI (DLD-1 colon) [µM] | TGI (HOP-62 NSCLC) [µM] | TGI (UO-31 renal) [µM] | TGI (KM20L2 colon) [µM] | TGI (OVCAR-4 ovarian) [µM] | TGI (IGROV1 ovarian) [µM] | TGI (SF-539 CNS) [µM] | TGI (CAKI-1 renal) [µM] | TGI (DMS 273 small cell lung) [µM] | TGI (PC-3 prostate) [µM] | TGI (MDA-N) [µM]
1 | Cc1c(-c2cc3n(n2)C(c2cccs2)C(C#N)=C(c2ccccc2)N3)c(=O)n(-c2ccccc2)n1C (stereo unspecified) | > 100 | > 100 | > 100 | > 100 | > 31.6 | > 100 | > 100 | > 100 | 84.2 | > 100 |  | 
2 | C=C1c2c(cc3c(c2O)c(=O)c2ccccc2n3C)OC1(C)C |  | > 100 |  | > 100 | > 100 |  | > 100 | > 100 | > 100 | > 100 |  | 
3 | NC(=O)CCC(NCc1c2ccccc2[n+]([O-])c2ccccc12)C(=O)O (stereo unspecified) | > 100 | > 100 | > 100 | > 100 | > 100 | > 100 | > 100 |  | > 100 | > 100 |  | 
4 | CC(C)(C)[Si](C)(C)OCCCC#CCO | > 100 | > 100 |  | > 100 | > 100 | > 100 | > 100 | > 100 | > 100 | > 100 |  | 
5 | CC(=O)[O-].CC(=O)[O-].O=C(N/N=C/c1cc(Cl)cc(Cl)c1[OH2+])c1ccncc1.[Co+2] | > 100 |  | > 100 | > 100 | > 100 |  | > 100 | > 100 |  |  |  | 
6 | CC(=O)c1ccc(Oc2ccc(/C(C)=N\N=C(N)N)cc2)cc1 |  | 14.3 | 9.72 |  | 3.43 | 23 | 18.2 | 3.48 |  |  |  | 
7 | O=C(O)CSCC(=O)Nc1ccc2cccc3c2c1CC3 | > 100 |  | > 100 | > 100 |  | > 100 | > 100 | > 100 | > 100 |  | > 100 | > 100
8 | Cc1cc2[nH]c3c(C#N)c(-c4ccccc4)c(N=Nc4cccc(C(F)(F)F)c4)c(=O)n3c2cc1C | > 100 |  | > 100 | > 100 |  | > 100 | > 100 | > 100 | > 100 |  | > 100 | > 100
9 | O=P(O)(O)C(CSc1ccccc1)P(=O)(O)O | > 100 | > 100 | > 100 | > 100 | > 100 | > 100 | > 100 | > 100 | > 100 | > 100 |  | 
10 | CC(=O)C1=C(N=[N+]=[N-])c2cccc3cccc(c23)C1=O | 44.7 |  | 29.7 | 29.7 |  | 49.1 | 32.6 | 42 | 30.7 |  | 53.2 | 42.7
11 | NC1CC(=O)c2csc(Br)c21 (stereo unspecified) | > 57.9 |  | > 72 | 30.7 |  | 30.5 | 25.4 | 8.24 | 27.5 |  | 28.4 | 28.4
12 | COc1cc(OC)c2c(c1OC)OCC(Cc1ccc(O)cc1)C2=O (stereo unspecified) | > 25 |  | > 25 | > 25 |  | > 25 | > 25 | > 25 | > 25 |  | > 25 | > 25
13 | O=C1OC(c2ccc(O)c(Cl)c2)(c2ccc(O)c(Cl)c2)c2ccc(Br)c3cccc1c23 (tested in a mixture with another compound) | 42.2 |  | 40.3 | 33.4 |  | 11.6 | 44.5 | 32.4 | 29.2 |  | 28.8 | 45.9
